Test results: patent US10806693B2, “Method for increasing lipolysis using a composition comprising bioactive Nelumbo nucifera (lotus) extract” (ISP Investments LLC, priority 2016, dated 2020)

Experiment: Lipolysis: glycerol release from differentiated 3T3-L1 adipocytes
Type: cell-based
Conditions: 2 mM, twice a day for 48 hours
Description: This study aims to evaluate in vitro effect of Nelumbo nucifera (Lotus) Extract on lipolysis by evaluating glycerol release on preadipocytes. Lipolysis is the hydrolysis of triglycerides into glycerol and fatty acids. The amount of glycerol release will be proportional to both the amount of stored triglyceride and the degree of lipolysis 3T3-L1 pre-adipocytes (ATCC) were cultured in DMEM 4.5 g/L glucose (Lonza) supplemented with 10% of FBS (Lonza), 2 mM of L-Glutamine (Lonza) and 100 μg/ml of Primocin (InvivoGen). 2 days after the cells' confluence, differentiation into adipocytes was induced by adding 0.5 mM IBMX, 1 μM dexamethasone and 10 μg/ml insulin (Sigma) in the culture medium for 3 days. Afterwards, IBMX and dexamethasone were removed and only the insulin was maintained for 3 to 4 days; then, the insulin was also removed, and the cells were maintained in culture medium for another 3 days. After differentiation, cells were treated with Nelumbo nucifera (Lotus) Extract of example 1 diluted at 1/10.000 eme in culture medium, further noted as Lotus 0.01% (volume/volume) or with 2 mM caffeine positive control, twice a day for 48 hours. Then glycerol release was measured using Adipolysis Assay Kit (Cayman Chemical), according to the manufacturer's instructions.

Cn1c(=O)c2c(ncn2C)n(C)c1=O [Caffeine, caffeine]
Glycerol release (% of untreated): 131 % of untreated
